Measured values from patent publication US5631133A, “Transition in transcriptional activation by intracellular hormone receptors at the tumor stage of dermal fibrosarcoma development” (The Regents of the University of California, priority 1995, dated 1997).

Experiments:
[1] = test system: GR and AP-1 (composite element G(26)A); assay: Transient transfection of G(26)A3-Luc composite GRE luciferase reporter, hormone responsiveness; format: cell-based, mouse; conditions: 100 nM dexamethasone, 24 h
Text: Where indicated, the expression vector 6RGR was co-transfected.
In view of the observed changes in GR and AP-1 activities, we next tested a composite element that requires both factors for transcriptional activation. The synthetic composite element, G(26)A, which resembles a sequence in the glucocorticoid regulatory region of the glutamine synthetase gene (Zhang and Young (1991) J. Biol. Chem., 266:24332-24338), contains the TAT GRE sequence linked through a 15 bp spacer to the collagenase AP-1 sequence. In this configuration, neither GR alone nor AP-1 alone (either Jun homodimers or Jun-Fos heterodimers) activates a linked reporter gene in transfected embryonal earcinoma F9 cells (which express low levels of endogenous GR and AP-1 factors), whereas co-transfection of GR and AP-1 (Jun-Jun or Jun-Fos) produces a strong synergistic activation upon hormone addition. We transfected a luciferase reporter construct containing three copies of the G(26)A composite element, G(26)A3-Luc, into cell cultures representing each stage of the fibrosarcoma progression.

[2] = molecular target: endogenous glucocorticoid receptor (GR) (Mus musculus, UniProt P06537)
Protocol: Cultures were established from skin and tumor tissues of several independent BPV transgenic mice (Sippola-Thiele et al., 1989), and maintained in Dulbecco's modified Eagle's medium (DMEM-21, high glucose formulation; Gibco-BRL) containing 8% fetal calf serum (Hyclone). Cells were propagated for no longer than five weeks and always used at low passage number (1-30). Several cultures were tested from each stage of the tumorigenic process: normal fibroblasts, NF (23784, 40950); mild fibromatosis, MF (39614, 14249, 27877); aggressive fibromatosis, AF (BPV7, BPV3, BPV21); fibrosarcoma, FS (BPV1, BPV22, BPV2, BPV11).
Cells were plated at least 12 h before transfeetion at ~0.5×10^6 cells per 6 cm dish. Reporter gene DNA (2 μg), together with the 6RZ (100 ng) as an internal control for efficiency of transfection, were introduced into cells using the DEAE-dextran method (Ausubel). Where indicated, the expression vector 6RGR was co-transfected. After exposure to the DNA/DEAE-dextran mixture, the cells were incubated for 24 h in fresh medium containing charcoal-strippedserum (Miesfeld et al., 1987) with or without 100 nM dexamethasone (Sigma). Cells were harvested and the luciferase activity measured according to the instructions of the manufacturer (Promega) and normalized for β-galactosidase expression as previously described (Miner and Yamamoto (1992) Genes Dev., 6:2491-2501). Each experiment was repeated at least six times and the results averaged.
To monitor the activity of the endogenous glucocorticoid receptor (GR) during dermal fibroblast tumorigenesis, we performed transient transfection assays using low passage primary cell lines representative of the four stages in this multistep pathway: normal dermal fibroblasts, NF; mild fibromatosis, MF; aggressive fibromatosis, AF; fibrosarcoma, FS. […] We first measured the hormone responsiveness of a reporter construct, TAT3-Luc, containing three tandem simple GREs derived from the tyrosine aminotransferase (TAT) gene (Jantzen et al., 1987).

[3] = molecular target: glucocorticoid receptor (GR) (Mus musculus, UniProt P06537); conditions: NF, MF, AF and FS cells; 500 nM dexamethasone, 2 h
glucocorticoid receptor (GR), sequence (P06537 whole entry): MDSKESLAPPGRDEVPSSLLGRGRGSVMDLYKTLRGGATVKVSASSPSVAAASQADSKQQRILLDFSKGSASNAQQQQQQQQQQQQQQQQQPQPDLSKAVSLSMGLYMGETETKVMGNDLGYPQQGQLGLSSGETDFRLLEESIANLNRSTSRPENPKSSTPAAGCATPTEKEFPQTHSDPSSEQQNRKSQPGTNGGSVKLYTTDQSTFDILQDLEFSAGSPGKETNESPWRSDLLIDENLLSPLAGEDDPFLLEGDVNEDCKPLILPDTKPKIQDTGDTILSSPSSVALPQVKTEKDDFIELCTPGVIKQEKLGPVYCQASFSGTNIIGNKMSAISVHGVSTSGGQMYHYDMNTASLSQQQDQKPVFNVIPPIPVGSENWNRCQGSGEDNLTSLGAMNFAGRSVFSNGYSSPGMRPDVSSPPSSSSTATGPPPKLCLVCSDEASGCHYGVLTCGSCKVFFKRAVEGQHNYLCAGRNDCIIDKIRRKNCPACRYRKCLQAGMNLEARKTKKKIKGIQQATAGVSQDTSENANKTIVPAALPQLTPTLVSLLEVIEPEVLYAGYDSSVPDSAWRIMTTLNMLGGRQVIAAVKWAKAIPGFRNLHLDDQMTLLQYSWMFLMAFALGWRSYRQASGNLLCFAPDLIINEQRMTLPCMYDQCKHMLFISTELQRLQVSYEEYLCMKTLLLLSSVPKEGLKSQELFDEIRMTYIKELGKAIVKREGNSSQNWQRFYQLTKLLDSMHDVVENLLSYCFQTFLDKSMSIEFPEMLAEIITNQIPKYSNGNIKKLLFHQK
Protocol: Cells were grown in 24-well plates (Corning). The medium was changed to serum-free, phenol-red free DMEM, supplemented with insulin (5 μg/ml) and transferrin (10 μg/ml), with or without 500 nM dexamethasone for 2 h. After three washes with ice-cold PBS, cells were fixed with cold (-20° C.) methanol for 10 min, and then washed with TBS. Nonspecific binding sites were blocked in blocking buffer (BB) (TBS, 1% Triton, 1% glycine, 3% bovine serum albumin and 10% normal goat serum). […] Diaminobenzidine (Sigma) was used as a substrate for the peroxidase reaction.
To assesss the nature of the differential GR activity, we examined the ligand-dependent nuclear translocation of GR in normal dermal fibroblasts and the three progressive conditions, MF, AF and FS.

endogenous glucocorticoid receptor (GR), sequence (P06537 whole entry): as above

Question: Which “hormonal induction through the G(26)A element” value ([1]; AF cells) does the source give for C[C@@H]1C[C@H]2[C@@H]3CCC4=CC(=O)C=C[C@]4(C)[C@@]3(F)[C@@H](O)C[C@]2(C)[C@@]1(O)C(=O)CO [dexamethasone] here?
Answer: The value was “only a modest hormonal induction”.

Question: What about the “induction of luciferase activity (G(26)A3-Luc)” value ([1]; tumor (FS) cells) of the same compound?
Answer: The value was “dramatically induced”.

Question: And the “hormonal induction of luciferase activity (TAT3-Luc)” value ([2]; FS (fibrosarcoma) cells, 100 nM dexamethasone, 24 h)?
Answer: The value was “strong hormonal induction”.

Question: And the “stimulation of basal luciferase activity (TAT3-Luc)” value ([2]; NF, MF or AF cell lines, 100 nM dexamethasone, 24 h)?
Answer: Its value is “only a modest stimulation”.

Question: And the “transcriptional response (TAT3-Luc)” value ([2]; nNF, dermal fibroblasts from non-transgenic mice)?
Answer: Its value is “low transcriptional response”.

Question: And the “nuclear translocation of GR” value [3]?
Answer: The value was “efficiently translocated to the nucleus”.
